In PubChem BioAssay (NCI):
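Results reflect a 48-hour exposure of cells in 96-well plates to compound at five concentrations. Definition used: TGI = concentration required for complete inhibition of growth.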

Legend:
Experiment in all cases: NCI tumour cell line growth inhibition, 48 h
U251 CNS = test system: U251 CNS
M14 melanoma = test system: M14 melanoma
SK-MEL-5 melanoma = test system: SK-MEL-5 melanoma
SR leukemia = test system: SR leukemia
MOLT-4 leukemia = test system: MOLT-4 leukemia
UACC-257 melanoma = test system: UACC-257 melanoma
MDA-N = test system: MDA-N
RPMI-8226 leukemia = test system: RPMI-8226 leukemia
OVCAR-5 ovarian = test system: OVCAR-5 ovarian
HOP-62 NSCLC = test system: HOP-62 NSCLC
HS 578T breast = test system: HS 578T breast
LOX IMVI melanoma = test system: LOX IMVI melanoma

Compound	TGI (U251 CNS) [µM]	TGI (M14 melanoma) [µM]	TGI (SK-MEL-5 melanoma) [µM]	TGI (SR leukemia) [µM]	TGI (MOLT-4 leukemia) [µM]	TGI (UACC-257 melanoma) [µM]	TGI (MDA-N) [µM]	TGI (RPMI-8226 leukemia) [µM]	TGI (OVCAR-5 ovarian) [µM]	TGI (HOP-62 NSCLC) [µM]	TGI (HS 578T breast) [µM]	TGI (LOX IMVI melanoma) [µM]
C[C@]12OC[C@H](c3ccccc3)N1C(=O)C1[C@H]2CC12SCCS2 (some centres not stated)	> 100	> 100	> 100	> 100	> 100	> 100	> 100	> 100	> 100	> 100	> 100	–
Cc1ccc(-c2cc(N)n(-c3nc4c([nH]3)c(=O)n(C)c(=O)n4C)n2)cc1	> 100	24.4	17	> 100	> 100	82.3	> 100	> 100	> 100	16.4	> 100	–
COc1cc(COC(=O)N[C@H](C(=O)O)C(C)(C)C)c([N+](=O)[O-])cc1OC	> 100	> 100	> 100	> 100	> 100	> 100	> 100	> 100	> 100	> 100	> 100	–
CCOC(=O)CCC(NC(=O)c1ccc(OCc2nc3cc(C(F)(F)F)ccc3nc2-c2ccccc2)cc1)C(=O)OCC (configuration not stated)	> 100	> 100	60.4	> 100	> 100	> 100	> 100	> 100	> 100	–	> 100	> 100
Clc1cc(N/N=C(/c2ccccc2)c2ncccn2)ncn1	> 100	> 100	> 100	> 100	> 100	64.4	> 100	> 100	> 100	59.3	66.7	–
CCN(CC)CCn1c2cc3c(cc2c(=O)c2cccnc21)OCCO3	> 10	> 10	> 10	> 10	> 10	> 10	> 10	> 10	–	> 10	> 10	–
c1sc(NC2=NCCO2)c2c1CCCC2	> 100	> 100	> 100	> 100	> 100	> 100	> 100	> 100	> 100	–	> 100	> 100
COc1ccc(Nc2[nH]c(C(C)=O)c(N)c2C(=S)Nc2ccccc2)cc1	> 100	69.3	> 100	> 100	> 100	> 100	> 100	–	> 100	> 100	> 100	> 100
COc1ccc2c(c1)c1c(n2CCN2CCOCC2)-c2ccccc2CC1	> 100	> 100	46.3	43.7	48	> 100	> 100	64.2	> 100	> 100	42.8	–
CCOC(=O)c1cc(=C2\CCN(CC(C)CC)C2=S)/c(=C(/O)CC)[nH]1 (configuration not stated)	26.5	–	–	26.3	24.6	31.4	28.2	25.4	–	–	59.6	41.2
Cc1cccc(N2C(=O)C3ON(C(C(N)=O)c4ccccc4)C(c4c5ccccc5c(Cl)c5ccccc45)C3C2=O)c1C (configuration not stated)	15.6	16.1	13.9	5.53	10.2	18.1	10	–	20.7	24.4	> 50	16.5
Cc1ccc(S(=O)(=O)N2CCN3C(=O)c4ccccc4C32c2ccc(F)cc2)cc1 (configuration not stated)	> 100	> 100	35.2	52.8	65.9	> 100	> 100	83.3	> 100	> 100	> 100	–
Cc1cn(C2CC(N)C(CN)O2)c(=O)[nH]c1=O (configuration not stated)	> 100	> 100	> 100	> 100	> 100	> 100	> 100	> 100	> 100	> 100	> 100	–
CC[C@@H]1CC[C@@H]2[C@H](CC[C@]3(C)[C@@H](O)CC[C@@H]23)[C@H]1C(=O)O	> 100	> 100	> 100	–	> 100	> 100	> 100	> 100	> 100	> 100	> 100	> 100
COC(=O)C1=C(C(=O)OC)C2OC1C1C2C2(C)C(C)=C(C)C1(C)S2=O (configuration not stated)	26.8	27.7	19.2	–	> 100	29.6	> 50.3	31	38.8	41.8	51.4	> 100
O=C(/C(=C(/Br)I)c1ccccc1)c1ccccc1	53.1	31	41.8	> 100	46.2	43.8	81.9	47.2	> 100	–	> 100	32.3
